The values below come from patent US8987195B2 (priority 2012, dated 2015).

Experiment [1] deals with HCV NS3/4A protease genotype 1b (Hepatitis C virus genotype 1b, UniProt P26663). In words: HCV NS3/4A protease time-resolved fluorescence (TRF) assay, Ki against genotype 1b. The following applies: for IC50: IC50 [gt-1b] (nM), NS3/4A genotype 1b, enzyme 0.2 nM; for pIC50: IC50 [gt-1b], NS3/4A protease TRF assay, genotype 1b enzyme 0.2 nM. Format: biochemical. In short, it runs like this: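 First, protease (genotype 1b 0.2 nM, A156T 0.4 nM, genotype 3a 0.025 nM) is preincubated 30 min with inhibitor. Next, 25 nM TRF substrate starts the reaction, run 2.5 h at room temperature. Finally, europium fluorescence is read and Ki calculated from IC50.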

The next experiment concerns HCV genotype 1b replicon. Put plainly: HCV replicon assay, genotype 1b replicon EC50. It counts as cell-based, Hepatitis C virus. The settings on record: Hepatitis C virus, read-out: EC50 [gt-1b]. In short, it runs like this: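 Assay format: compound titration on stable replicon cells, no G418 during treatment, 24 to 48 hours. Lysates were assayed for replicon RNA (hybridization/protection or TaqMan) or luciferase; EC50 fitted to four parameters against DMSO.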

pEC50, pIC50: −log10 of the molar value. Read-outs that look alike come from different tables or passages of the source.

By IC50 is commonly meant the point on the concentration scale where inhibition reaches its midpoint. A word on the pEC50: it is the EC50 on a negative log10 scale, so that one unit is a factor of ten. In turn, `COc1ccc2nc(C(F)(F)F)c3c(c2c1)[C@@H](O)C[C@]1(C[C@H]2C(=O)N[C@]4(C(=O)NS(=O)(=O)C5(C)CC5)C[C@H]4/C=C\CCCCC[C@H](NC(=O)OC(C)(C)C)C(=O)N2C1)O3` [Example 55, tert-Butyl [(1′S,2S,6S,12Z,13aS,14aR,16aS)-1′-hydroxy-9′-methoxy-14a-{[(1-methylcyclopropyl)sulfonyl]carbamoyl}-5,16-dioxo-5′-(trifluoromethyl) -1,1′,2′,5,6,7,8,9,10,11,13a,14,14a,15,16,16a-hexadecahydrospiro[cyclopropa[e]pyrrolo[1,2-a][1,4]diazacyclopentadecine-2,3′-pyrano[2,3-c]quinolin]-6-yl]carbamate] yielded a concentration for half-maximal inhibition (IC50) in experiment [1] of 0.007 nM. Further, the pEC50 in the experiment on HCV genotype 1b replicon (genotype 1b replicon) was 9.24.
What is called pIC50 is the negative decadic logarithm of the IC50, by convention in mol/L. Read a low pIC50 as a high IC50. For the compound `COc1ccc2nc(C)c3c(c2c1)CC[C@]1(C[C@H]2C(=O)N[C@]4(C(=O)NS(=O)(=O)C5(C)CC5)C[C@H]4/C=C\CCCCC[C@H](NC(=O)OC(C(C)(C)C)C(F)(F)F)C(=O)N2C1)O3` (stereo partly drawn) [Example 366, 1,1,1-trifluoro-3,3-dimethylbutan-2-yl [(2R,6S,12Z,13aS,14aR,16aS)-9′-methoxy-5′-methyl-14a-{[(1-methylcyclopropyl)sulfonyl]carbamoyl}-5,16-dioxo-1,1′,2′,5,6,7,8,9,10,11,13a,14,14a,15,16,16a-hexadecahydrospiro[cyclopropa[e]pyrrolo[1,2-a][1,4]diazacyclopentadecine-2,3′-pyrano[2,3-c]quinolin]-6-yl]carbamate], the pIC50 in experiment [1] was 10.64. Also, the pEC50 with HCV genotype 1b replicon (HCV replicon, genotype 1b) was 8.19.
As to `Cc1nc2ccc(Cl)cc2c2c1O[C@]1(CC2)C[C@H]2C(=O)N[C@]3(C(=O)NS(=O)(=O)C4(C)CC4)C[C@H]3/C=C\CCCCC[C@H](NC(=O)OC(C)(C)C)C(=O)N2C1` [Example 39, tert-Butyl ((2R,6S,13aS,14aR,16aS,Z)-9′-chloro-5′-methyl-14a-(((1-methylcyclopropyl)sulfonyl)carbamoyl)-5,16-dioxo-1′,2′,3,5,6,7,8,9,10,11,13a,14,14a,15,16,16a-hexadecahydro-1H-spiro[cyclopropa[e]pyrrolo[1,2-a][1,4]diazacyclopentadecine-2,3′-pyrano[2,3-c]quuinolin]-6-yl)carbamate], half-maximal inhibition in experiment [1] (IC50) was put at 0.004 nM. In addition, the pEC50 in the experiment with HCV genotype 1b replicon (genotype 1b replicon) was 9.23.
Consider `Cc1nc2cc(F)c(F)cc2c2c1O[C@]1(CC2)C[C@H]2C(=O)N[C@]3(C(=O)NS(=O)(=O)C4(C)CC4)C[C@H]3/C=C\CCCCC[C@H](NC(=O)OCC(C)C)C(=O)N2C1` [Example 201, 2-methylpropyl [(2R,6S,12Z,13aS,14aR,16aS)-8′,9′-difluoro-5′-methyl-14a-{[(1-methylcyclopropyl)sulfonyl]carbamoyl}-5,16-dioxo-1,1′,2′,5,6,7,8,9,10,11,13a,14,14a,15,16,16a-hexadecahydrospiro[cyclopropa[e]pyrrolo[1,2-a][1,4]diazacyclopentadecine-2,3′-pyrano[2,3-c]quinolin]-6-yl]carbamate], for which the concentration for half-maximal inhibition (IC50) in experiment [1] (K+ salt) is 0.007 nM. Also, the negative-log EC50 (pEC50) in the experiment on HCV genotype 1b replicon (genotype 1b replicon, K+ salt) was 9.04.
As to `CC(C)(C)OC(=O)N[C@H]1CCCCC/C=C\[C@@H]2C[C@@]2(C(=O)NS(=O)(=O)C2(C)CC2)NC(=O)[C@@H]2C[C@]3(CCc4c(c(C5CC5)nc5ccc6c(c45)OCO6)O3)CN2C1=O` [Example 29, tert-butyl (2′R,6′S,13a′S,14a′R,16a′S,Z)-7-cyclopropyl-14a′-(1-methylcyclopropylsulfonylcarbamoyl)-5′,16′-dioxo-3′,5′,6′,7′,8′,9′,10,10′,11,11′,13a′,14′, 14a′,15′,16′,16a′-hexadecahydro-1′H-spiro[[1,3]dioxolo[4,5-f]pyrano[2,3-c]quinoline-9,2′-cyclopropa[e]pyrrolo[1,2-a][1,4]diazacyclopentadecine]-6′-ylcarbamate], the IC50 in experiment [1] worked out at 0.021 nM. Moreover, the pEC50 with HCV genotype 1b replicon (genotype 1b replicon) is 9.22.
In experiment [1], `CC(C)(OC(=O)N[C@H]1CCCCC/C=C\[C@@H]2C[C@@]2(C(=O)NS(=O)(=O)C2(C)CC2)NC(=O)[C@@H]2C[C@]3(CCc4c(c(C(F)F)nc5ccc(Cl)cc45)O3)CN2C1=O)C(F)(F)F` [Example 334, 1,1,1-trifluoro-2-methylpropan-2-yl [(2R,6S,12Z,13aS,14aR,16aS)-9′-chloro-5′-(difluoromethyl)-14a-{[(1-methylcyclopropyl)sulfonyl]carbamoyl}-5,16-dioxo-1,1′,2′,5,6,7,8,9,10,11,13a,14,14a,15,16,16a-hexadecahydrospiro[cyclopropa[e]pyrrolo[1,2-a][1,4]diazacyclopentadecine-2,3′-pyrano[2,3-c]quinolin]-6-yl]carbamate] yielded an IC50 of 0.019 nM. Moreover, the pEC50 in the experiment with HCV genotype 1b replicon (genotype 1b replicon) is 8.25.
In experiment [1], `CCc1nc2ccc(OC)cc2c2c1O[C@]1(CC2)C[C@H]2C(=O)N[C@]3(C(=O)NS(=O)(=O)C4(C)CC4)C[C@H]3/C=C\CCCCC[C@H](NC(=O)c3sccc3F)C(=O)N2C1` [Example 490, (2R,6S,12Z,13aS,14aR,16aS)-5′-ethyl-6-{[(3-fluorothiophen-2-yl)carbonyl]amino}-9′-methoxy-N-[(1-methylcyclopropyl)sulfonyl]-5,16-dioxo-1,1′,2′,6,7,8,9,10,11,13a,14,15,16,16a-tetradecahydrospiro[cyclopropa[e]pyrrolo[1,2-a][1,4]diazacyclopentadecine-2,3′-pyrano[2,3-c]quinoline]-14a(5H)-carboxamide] had a pIC50 of 10.77. The negative-log EC50 (pEC50) in the experiment on HCV genotype 1b replicon (HCV replicon, genotype 1b) is 9.33.
As for `COc1ccc2c3c(c(C4CC4)nc2c1)O[C@]1(CC3)C[C@H]2C(=O)N[C@]3(C(=O)NS(=O)(=O)C4(C)CC4)C[C@H]3/C=C\CCCCC[C@H](NC(=O)OCC(C)C)C(=O)N2C1` [Example 136, 2-methylpropyl [(2R,6S,12Z,13aS,14aR,16aS)-5′-cyclopropyl-8′-methoxy-14a-{[(1-methylcyclopropyl)sulfonyl]carbamoyl}-5,16-dioxo-1,1′,2′,5,6,7,8,9,10,11,13a,14,14a,15,16,16a-hexadecahydrospiro[cyclopropa[e]pyrrolo[1,2-a][1,4]diazacyclopentadecine-2,3′-pyrano[2,3-c]quinolin]-6-yl]carbamate], the half-inhibitory concentration (IC50) in experiment [1] (K+ salt) amounted to 0.019 nM. Also, the pEC50 in the experiment on HCV genotype 1b replicon (genotype 1b replicon, K+ salt) was 8.67.
Turning to `Cc1nc2cc(F)c(F)cc2c2c1O[C@]1(CC2)C[C@H]2C(=O)N[C@]3(C(=O)NS(=O)(=O)C4(C)CC4)C[C@H]3/C=C\CCCCC[C@H](NC(=O)OC3CCCC3)C(=O)N2C1` [Example 193, cyclopentyl [(2R,6S,12Z,13aS,14aR,16aS)-8′,9′-difluoro-5′-methyl-14a-{[(1-methylcyclopropyl)sulfonyl]carbamoyl}-5,16-dioxo-1,1′,2′,5,6,7,8,9,10,11,13a,14,14a,15,16,16a-hexadecahydrospiro[cyclopropa[e]pyrrolo[1,2-a][1,4]diazacyclopentadecine-2,3′-pyrano[2,3-c]quinolin]-6-yl]carbamate], the IC50 in experiment [1] (K+ salt) was found to be 0.007 nM. The pEC50 in the experiment on HCV genotype 1b replicon (genotype 1b replicon, K+ salt) is 7.51.
As to `Cc1nc2ccc(Cl)cc2c2c1O[C@]1(CC2)C[C@H]2C(=O)N[C@]3(C(=O)NS(=O)(=O)C4(C)CC4)C[C@H]3/C=C\CCCCC[C@H](NC(=O)OCC3(C)CC3)C(=O)N2C1` [Example 41], the IC50 in experiment [1] (K+ salt) is 0.007 nM. The pEC50 with HCV genotype 1b replicon (GETYPE1B|GT1B, genotype 1b replicon, K+ salt) is 7.79.
In the case of `Cc1nc2ccccc2c2c1O[C@]1(CC2)C[C@H]2C(=O)N[C@]3(C(=O)NS(=O)(=O)C4(C)CC4)C[C@H]3/C=C\CCCCC[C@H](NC(=O)OCC(F)(F)F)C(=O)N2C1` [Example 129, 2,2,2-trifluoroethyl [(2R,6S,12Z,13aS,14aR,16aS)-5′-methyl-14a-{[(1-methylcyclopropyl)sulfonyl]carbamoyl}-5,16-dioxo-1,1′,2′,5,6,7,8,9,10,11,13a,14,14a,15,16,16a-hexadecahydrospiro[cyclopropa[e]pyrrolo[1,2-a][1,4]diazacyclopentadecine-2,3′-pyrano[2,3-c]quinolin]-6-yl]carbamate], in experiment [1], the IC50 was determined as 0.011 nM. In addition, in the experiment on HCV genotype 1b replicon (genotype 1b replicon), the negative logarithm of the EC50 (pEC50) was 8.68.
Regarding `Cc1nc2cc(Cl)ccc2c2c1O[C@]1(CC2)C[C@H]2C(=O)N[C@]3(C(=O)NS(=O)(=O)C4(C)CC4)C[C@H]3/C=C\CCCCC[C@H](NC(=O)OC3CCC3)C(=O)N2C1` [Example 239, cyclobutyl [(2R,6S,12Z,13aS,14aR,16aS)-8′-chloro-5′-methyl-14a-{[(1-methylcyclopropyl)sulfonyl]carbamoyl}-5,16-dioxo-1,1′,2′,5,6,7,8,9,10,11,13a,14,14a,15,16,16a-hexadecahydrospiro[cyclopropa[e]pyrrolo[1,2-a][1,4]diazacyclopentadecine-2,3′-pyrano[2,3-c]quinolin]-6-yl]carbamate], the IC50 in experiment [1] was determined as 0.068 nM. Also, the pEC50 in the experiment on HCV genotype 1b replicon (genotype 1b replicon) is 8.29.
Compound `Cc1nc2c(F)cccc2c2c1O[C@]1(CC2)C[C@H]2C(=O)N[C@]3(C(=O)NS(=O)(=O)C4(C)CC4)C[C@H]3/C=C\CCCCC[C@H](NC(=O)OCC(C)C)C(=O)N2C1` [Example 147, 2-methylpropyl [(2R,6S,12Z,13aS,14aR,16aS)-7′-fluoro-5′-methyl-14a-{[(1-methylcyclopropyl)sulfonyl]carbamoyl}-5,16-dioxo-1,1′,2′,5,6,7,8,9,10,11,13a,14,14a,15,16,16a-hexadecahydrospiro[cyclopropa[e]pyrrolo[1,2-a][1,4]diazacyclopentadecine-2,3′-pyrano[2,3-c]quinolin]-6-yl]carbamate] came in with an IC50 in experiment [1] of 0.01 nM. In the experiment on HCV genotype 1b replicon (genotype 1b replicon), the pEC50 was 8.98.
